From US7494821B2, “Fluorescein based sensors for tracking nitric oxide in live cells” (Massachusetts Institute of Technology, priority 2005, dated 2009)

Tests used:
[1] = tested on: mixture of Raw 264.7 and SK-N-SH cells; assay: NO imaging in Raw 264.7 and SK-N-SH co-culture; assay type: cell-based; settings: 17β-estradiol (100 nM) and Cu(FL5) (1 μM) for 10 min
Method: FIG. 9 illustrates NO detection in SK-N-SH and Raw 264.7 cells by Cu(FL5). Cells were treated with Cu(FL5) (1 μM) and 17β-estradiol (500 nM) for 10 min. The media were subsequently removed and the cells washed with PBS. Images were taken with a Nikon Eclipse TS100 microscope.
The fluorescence response was also monitored in a mixture of Raw 264.7 and SK-N-SH cells grown on the same plate and co-treated with 17β-estradiol (100 nM) and Cu(FL5) (1 μM) for 10 min.

[2] = tested on: Raw 264.7 cells; assay: MTT cytotoxicity assay on Raw 264.7 cells; assay type: cell-based, murine; settings: Cu(FL5) 1 μM, 5 days
Method: (§1) Raw 264.7, SK-N-SH, and HeLa cells were purchased from the American Type Culture Collection (ATCC). All three cell lines were maintained in Dulbecco's modified Eagles' media (DMEM) (GibcoBRL) containing 10% (v/v) heat-inactivated fetal bovine serum (FBS) (HyClone), 1 mM sodium pyruvate (Sigma), 100 units/ml penicillin, 100 μg/ml streptomycin (Invitrogen), and 0.1 mM nonessential amino acid solution for minimal essential medium (Sigma). All cells were grown at 37° C. in a humidified atmosphere of 10% CO2. A nitrite assay was performed with Griess reagents (Promega) on Raw 264.7 cells grown in DMEM free of phenol red. Calcium sensor fluo-4 AM was purchased from Invitrogen. MTT [3-(4,5-dimethylthiazol-2-yl)-2,5-diphenyltetrazolium bromide] (Sigma-Aldrich) assay was described in Supplementary information. The expression of iNOS in Raw 264.7 cells was analyzed by Western blot on the extracts of cells stimulated by LPS and INF-γ. The protein was silenced by short hairpin RNA-induced RNAi and the resulting cell lines were used in fluorescence imaging by Cu(FL5).

[3] = tested on: SK-N-SH cells; assay: MTT cytotoxicity assay on SK-N-SH cells; assay type: cell-based, human
Method: To test the toxicity of Cu(FL5), a MTT [3-(4,5-dimethylthiazol-2-yl)-2,5-diphenyltetrazolium bromide] assay was performed on SK-N-SH cells after 5 days of incubation with Cu(FL5) (1 μM).
Thus, both Cu(FL5) and FL5−NO are not toxic under the conditions used here for bioimaging of NO.
as §1

[4] = tested on: HeLa cells; assay: Control imaging in HeLa cells; assay type: cell-based
Method: We investigated the ability of Cu(FL5) to detect NO produced in SK-N-SH human neuroblastoma cells under physiological conditions, since constitutive NO synthase (“cNOS”) in this cell line can be activated by estrogen to produce NO. Estrogen administration leads to an increase in the cytosolic Ca(II) concentration that alters the structure of calmodulin, which in turn activates cNOS. The NO-dependent fluorescence response, monitored after simultaneous administration of 17β-estradiol (100 nM) and Cu(FL5) (1 μM) to the cells, was completed within 5 min with a 4.0±0.6-fold increase in fluorescence (FIGS. 5a and b). […] As another control, HeLa cells were co-treated with 17β-estradiol (100 nM) and Cu(FL5) (1 μM).
To investigate further the origin of fluorescence detected by Cu(FL5), iNOS was silenced in Raw 264.7 cells by short hairpin RNA (shRNA)-induced RNA interference (RNAi) (FIG. 6b).
Raw 264.7, SK-N-SH, and HeLa cells were purchased from the American Type Culture Collection (ATCC). […] The expression of iNOS in Raw 264.7 cells was analyzed by Western blot on the extracts of cells stimulated by LPS and INF-γ. The protein was silenced by short hairpin RNA-induced RNAi and the resulting cell lines were used in fluorescence imaging by Cu(FL5).

[5] = tested on: iNOS; assay: iNOS expression in Raw 264.7 cells (Western blot); assay type: cell-based, murine; settings: Raw 264.7 cells upon introduction of LPS and IFN-γ
Method: as §1

[6] = Cu(II) binding of FL5 (UV-vis titration with CuCl2; fluorescence quenching); settings: 1 μM FL5 solution, 37° C.
Method: Derivatized fluorescein molecules are excellent biosensors because they excite and emit in a region of the visible spectrum that is relatively free of interference. We prepared the fluorescein-based ligand FL5 (FIG. 4) by reacting 7′-chloro-4′-fluorescein-carboxaldehyde with 8-aminoquinaldine. We generated the Cu(II) fluorescein-based NO probe Cu(FL5) (FIG. 4) in situ reacting FL5 (prepared as described below) awith CuCl2 in a 1:1 ratio in buffered aqueous solution (50 mM PIPES, pH 7.0, 100 mM KCl). […] A Job's plot was constructed to evaluate the nature of the FL5:Cu(II) complex by following the UV-vis absorption spectral change at 512 nm in pH 7.0 buffered solution. A break at 0.5 indicated the formation of a 1:1 complex.
The fluorescence of a 1 μM FL5 solution was diminished by 18±3% upon introduction of an equimolar quantity of CuCl2 at 37° C. Addition of excess NO to a buffered aqueous Cu(FL5) solution led to an immediate 11.2±1.5-fold increase in fluorescence (FIG. 5). […] The lower detection limit for NO is 5 nM.

[7] = Quantum yield; assay type: physicochemical
Description: Quantum yield may be obtained by comparison of the integrated area of the corrected emission spectrum of the sample with that of a reference solution. A preferred reference solution is a solution of fluorescein in 0.1 N NaOH, quantum efficiency 0.95. The concentration of the reference is adjusted to match the absorbance of the test sample. The quantum yields may be calculated using the following equation.
Upon addition of excess NO, a 499 nm peak in the UV-vis spectrum of Cu(FL5) in pH 7.0 buffered solution red-shifted back to the λmax characteristic of FL5 or the synthetic FL5−NO compound (504 nm), which differs from the band formed in the reaction of FL5 with 1 equivalent of Cu(I) added as [Cu(CH3CN)4](BF4) (506 nm). […] In addition, the spectrum of the NO reaction solution closely resembled that of the monoanionic fluorescein formed by lowering the pH from 7.0 to 5.0. […] These values are in the range previously reported for N-nitrosamines. The presence of two separate chemical shifts might arise from different isomers in solution, the Δδ of 2.29 being similar to that of previously reported of N-nitrosamines. […] Lastly, FL5−NO is brighter than FL5 or Cu(FL5), the respective quantum yields being ΦFL-NO=0.58±0.02 and ΦFL=0.077±0.002.

Structure (SMILES) | fluorescence response in co-culture [1] | survival of Raw 264.7 cells (MTT) [2] | viable cells (MTT), cell line not specified ([3]; 1 μM Cu(FL5), after 5 days) | survival of SK-N-SH cells (MTT) ([3]; 5 days of incubation, Cu(FL5) 1 μM) | fluorescence in HeLa cells co-treated with 17β-estradiol ([4]; 17β-estradiol (100 nM), Cu(FL5) (1 μM)) | turn-on fluorescence emission in HeLa cells treated with LPS and IFN-γ ([4]; LPS and IFN-γ prior to Cu(FL5) incubation) | effect on expression of iNOS [5] | fluorescence diminished upon introduction of equimolar CuCl2 [6] | quantum yield Φ [7]
Cc1ccc2cccc(NCc3c([O][Cu][Cl])ccc4c(-c5ccccc5C(=O)O)c5cc(Cl)c(=O)cc-5oc34)c2n1 [Cu(FL5)] | fluorescence increase was observed exclusively in the SK-N-SH cells | 90±3% | > 80% | 80±9% | absence of turn-on emission | not observed | does not affect the expression of iNOS |  | 
Cc1ccc2cccc(NCc3c(O)ccc4c(-c5ccccc5C(=O)O)c5cc(Cl)c(=O)cc-5oc34)c2n1 [FL5, 2-{2-chloro-6-hydroxy-5-[(2-methyl-quinolin-8-ylamino)-methyl]-3-oxo-3H-xanthen-9-yl}-benzoic acid] |  |  |  |  |  |  |  | 18±3% | 0.077±0.002
